Measurements: patent US20050227249A1, “Polymorphisms in the human MDR-1 gene and their use in diagnostic and therapeutic applications” (priority 1999, published 2005)
Values joined by “and” are separate entries in the source; they are usually repeats but may differ in a detail not shown here. Equal values may be shown once.

What was measured:
[1] = target: T1, MDR-1 (Homo sapiens, UniProt P08183); test: clinical; parameters: The expression levels of MDR-1 in the colon and liver of these patients was also estimated by established immunohistochemical detection; from tissue; host or cells: colon (intestine) of human probands, in vivo; details: in vivo
T1 sequence (P08183 whole entry): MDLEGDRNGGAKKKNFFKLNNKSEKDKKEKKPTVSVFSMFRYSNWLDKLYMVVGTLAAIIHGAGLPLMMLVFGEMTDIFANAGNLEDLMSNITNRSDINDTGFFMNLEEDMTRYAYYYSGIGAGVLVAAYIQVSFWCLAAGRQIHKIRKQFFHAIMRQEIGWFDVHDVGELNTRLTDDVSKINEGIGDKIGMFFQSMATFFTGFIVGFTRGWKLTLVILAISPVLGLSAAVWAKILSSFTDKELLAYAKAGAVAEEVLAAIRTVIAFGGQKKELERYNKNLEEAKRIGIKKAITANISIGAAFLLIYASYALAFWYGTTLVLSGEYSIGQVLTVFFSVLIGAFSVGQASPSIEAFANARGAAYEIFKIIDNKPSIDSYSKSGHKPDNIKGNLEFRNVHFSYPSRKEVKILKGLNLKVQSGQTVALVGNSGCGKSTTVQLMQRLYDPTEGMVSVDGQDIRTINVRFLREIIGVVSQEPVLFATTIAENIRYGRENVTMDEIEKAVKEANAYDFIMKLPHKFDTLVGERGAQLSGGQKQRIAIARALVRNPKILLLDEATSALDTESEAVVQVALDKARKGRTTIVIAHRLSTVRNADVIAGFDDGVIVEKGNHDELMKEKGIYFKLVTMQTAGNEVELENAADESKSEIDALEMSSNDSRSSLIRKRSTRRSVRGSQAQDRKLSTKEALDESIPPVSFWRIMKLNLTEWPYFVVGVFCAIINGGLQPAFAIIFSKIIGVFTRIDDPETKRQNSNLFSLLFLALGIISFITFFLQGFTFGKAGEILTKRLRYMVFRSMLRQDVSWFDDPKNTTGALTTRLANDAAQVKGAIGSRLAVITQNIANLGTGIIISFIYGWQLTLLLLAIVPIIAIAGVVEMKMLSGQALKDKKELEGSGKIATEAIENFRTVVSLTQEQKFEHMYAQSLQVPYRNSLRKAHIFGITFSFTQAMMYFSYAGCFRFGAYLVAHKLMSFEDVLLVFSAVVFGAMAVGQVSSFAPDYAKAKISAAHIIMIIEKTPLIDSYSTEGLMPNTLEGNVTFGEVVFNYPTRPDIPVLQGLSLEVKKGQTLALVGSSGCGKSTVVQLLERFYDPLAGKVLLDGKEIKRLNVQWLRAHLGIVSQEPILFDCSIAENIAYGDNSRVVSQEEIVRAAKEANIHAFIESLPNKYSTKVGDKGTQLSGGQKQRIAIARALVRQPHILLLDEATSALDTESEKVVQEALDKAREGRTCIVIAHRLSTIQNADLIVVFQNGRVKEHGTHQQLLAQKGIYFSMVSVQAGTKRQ
Excerpt: (§1) To identify potential direct correlations of MDR-1 polymorphisms with clinical relevant phenotypes in humans, probands from a study at the Dr. Margarete Fischer-Bosch-Institut for Clinical Pharmacology in Stuttgart, were subjected to the determination of MDR-1 polymorphisms as described in examples 2-4. The expression levels of MDR-1 in the colon and liver of these patients was also estimated by established immunohistochemical detection of the MDR-1 protein. In the proband population, in addition to measurements of the expression levels of MDR-1 in the colon, measurements of MDR-1 upon induction of the gene by rifampicine were performed. Also, the in vivo activity of MDR-1 under noninduced and rifampicine induced conditions was determined by measuring the blood concentrations of orally administered digoxin (1 mg), which is a known MDR-1 substrate and whose blood concentration also depends on the MDR-1 activity in the colon. The results of the MDR-1 measurements, rifampicine induction experiments and digoxin-experiments, as well as results from the MDR-1 polymorphism detection analysis in the proband population show correlations between MDR-1 gene expression and MDR-1 in vivo activity with certain polymorphisms.
This was done by measuring the blood concentrations of orally administered digoxin which is a known MDR-1 substrate and whose blood concentration also depends on the MDR-1 activity in the colon. […] The probands that harbor the T allele (correlates with weaker MDR-1 expression, see Tab. 4), contain higher blood levels of digoxin compared to samples which have only the corresponding homozygous C-allele. […] This is totally consistent with the function of MDR-1 in the colon, i.e. re-transport and elimination of substrates from the uptaking cells into the lumen of the colon. […] The difference of the digoxin blood levels between these individuals was more than 4-fold.

[2] = digoxin maximum plasma concentration (Cmax) at steady state after oral application, by MDR-1 exon 26 genotype; type: in vivo, human; details: 7 T/T vs 7 C/C volunteers, T/T higher, p=0.006
Experimental: For a further validation of the correlation of MDR-1 genotype with intestinal digoxin uptake, additional volunteers of another clinical study at the University Medical Center, Charite in Berlin that addresses blood levels of digoxin after oral application (without rifampin induction and PGP protein determination, Johne et al. (1999), Clin.
In this study, maximum plasma concentrations (Cmax) were evaluated during steady state conditions of digoxin.

[3] = target: T1, MDR-1; test: clinical; parameters: from tissue; host or cells: colon (intestine) of human probands, in vivo; details: in vivo, po, 1 mg, digoxin concentration in blood (Dig AUC)
Excerpt: as §1, with “polymorphisms. […]” for “polymorphisms.”

[4] = test system: MDR-1; test: MDR-1 (PGP) protein levels in probands upon induction by rifampicine, immunohistochemical detection; type: in vivo, human; details: for PGP concentration, mean / PGP concentration: rifampicine-induced probands; for PGP concentration: individual probands
Experimental: The expression levels of MDR-1 in the colon and liver of these patients was also estimated by established immunohistochemical detection of the MDR-1 protein. In the proband population, in addition to measurements of the expression levels of MDR-1 in the colon, measurements of MDR-1 upon induction of the gene by rifampicine were performed. Also, the in vivo activity of MDR-1 under noninduced and rifampicine induced conditions was determined by measuring the blood concentrations of orally administered digoxin (1 mg), which is a known MDR-1 substrate and whose blood concentration also depends on the MDR-1 activity in the colon.

[5] = Phenytoin blood levels in patients by 2C9/2C19 and MDR-1 exon 26 (C3435T) genotype; type: in vivo, human

## C[C@H]1O[C@@H](O[C@H]2[C@@H](O)C[C@H](O[C@H]3[C@@H](O)C[C@H](O[C@H]4CC[C@@]5(C)[C@H](CC[C@@H]6[C@@H]5C[C@@H](O)[C@]5(C)[C@@H](C7=CC(=O)OC7)CC[C@]65O)C4)O[C@@H]3C)O[C@@H]2C)C[C@H](O)[C@@H]1O [digoxin]
[1]
  difference of the digoxin blood levels between homozygous T and homozygous C proband: more than 4 fold
  highest rif-induced dig blood level: 12.3
  lowest rif-induced dig blood level: 57.3
[2]
  mean difference in digoxin Cmax between T/T and C/C groups: 38%
[3]
  AUC: 63.6 ng·h/mL

## CO[C@H]1/C=C/O[C@@]2(C)Oc3c(C)c(O)c4c(O)c(c(/C=N/N5CCN(C)CC5)c(O)c4c3C2=O)NC(=O)/C(C)=C\C=C\[C@H](C)[C@H](O)[C@@H](C)[C@@H](O)[C@@H](C)[C@H](OC(C)=O)[C@@H]1C [rifampicine]
[4]; proband homozygous C/C at position 176
  highest rif-induced activity (PGP concentration): 1264.9
[4]; proband homozygous T/T at position 176
  lowest rif-induced activity (PGP concentration): 142.1
[4]; rifampicin-induced, highest (C/C) vs lowest (T/T) proband
  difference of induced MDR-1 expression levels between homozygous C and homozygous T proband: 9 fold
[4]; T-allele absent (C/C only)
  PGP concentration, mean: 924 relative units
  PGP concentration: 423 relative units and 1264 relative units and 1086 relative units
[4]; T-allele present (T/T and T/C)
  PGP concentration, mean: 587 relative units
[4]; T-allele present (T/T and T/C) at position 176 in exon 26
  PGP concentration: 142 relative units and 1085 relative units and 520 relative units and 601 relative units

## O=C1NC(=O)C(c2ccccc2)(c2ccccc2)N1 [Phenytoin]
[5]; 2C9 deficient patient with low PGP (T/T) genotype, within a group of 100 patients
  highest blood concentration, increase compared to the normal population: about twofold
[5]; 2C9 normal metabolizers, MDR-1 genotype CC and CT (intestinal PGP high/medium)
  Phenytoin blood levels: normal
[5]; 2C9 normal metabolizers, MDR-1 genotype TT (intestinal PGP low)
  Phenytoin blood levels: normal
[5]; 2C9 weak and/or deficient metabolizers, MDR-1 genotype CC and CT (intestinal PGP high/medium)
  Phenytoin blood levels: high
[5]; 2C9 weak and/or deficient metabolizers, MDR-1 genotype TT (intestinal PGP low)
  Phenytoin blood levels: VERY HIGH
